In patent US9133207B2, “Tetrandrine derivatives with substituted 5-carbon, preparation method and use thereof” (Hangzhou Bensheng Pharmaceutical Co., Ltd., priority 2011, dated 2015):
Converted amounts (≈) assume the structure as drawn. Blank lines part the entries; values can stand above or below the compound they belong to.

How the values were obtained:
[1] = tested on: NB4 (acute promyelocytic leukemia, AML); experiment: Leukemia cell growth inhibition, MTT, 72 h (Example 5); type: cell-based, human; details: Homo sapiens; 72 h, MTT
Procedure, shortened: (§1)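 An MTT read-out of viable cell concentration follows 72 h incubation (37° C, 5% CO2) of 6000 cells/well in 10% FBS-supplemented 1640 medium with the 5-substituted derivatives at varying concentrations.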

[2] = tested on: K562/adr (drug-resistant, chronic myeloid leukemia, CML); experiment: as above; type: cell-based, human; details: Homo sapiens, K562/Adr; 72 h, MTT
Procedure, shortened: as §1

[3] = tested on: H9 (acute lymphoblastic leukemia, ALL); experiment: as above; type: cell-based, human; details: Homo sapiens; 72 h, MTT
Procedure, shortened: as §1

[4] = tested on: Jurkat (acute lymphoblastic leukemia, ALL); experiment: as above; type: cell-based, human; details: Homo sapiens, Jurkat; 72 h, MTT
Procedure, shortened: as §1

[5] = tested on: Kasumi-1 (acute myeloid leukemia M2 type, AML-M2); experiment: as above; type: cell-based, human; details: Homo sapiens, Kasumi 1
Procedure, shortened: as §1

MG63 (osteosarcoma) = experiment: Solid tumor cell growth inhibition, MTT, 72 h (Example 7); type: cell-based, human; details: Homo sapiens; 72 h, MTT, MG-63
Procedure, shortened: (§2)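 Viability (%) relative to compound-free controls (100%) comes from MTT measurement following 72 h drug exposure at 37 °C, 5% CO2. Seeding density: 4000 cells/well, 24 h before dosing.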

PC-3 (prostate cancer) = experiment: as above; type: cell-based, human; details: for IC50 / IC90: Homo sapiens, 72 h, MTT, PC-3
Procedure, shortened: as §2

[6] = tested on: PANC-1 (pancreatic cancer); experiment: as above; type: cell-based, human; details: for IC50 / IC90: Homo sapiens, 72 h, MTT, PANC-1
Procedure, shortened: as §2

[7] = tested on: Hep-2 (laryngeal carcinoma); experiment: as above; type: cell-based, human; details: Homo sapiens; 72 h, MTT, Hep 2
Procedure, shortened: as §2

[8] = tested on: CaES-17 (esophageal cancer cell); experiment: as above; type: cell-based, human; details: Homo sapiens, CaEs17; 72 h, MTT, CAES-17
Procedure, shortened: as §2

[9] = tested on: RPMI8226 (multiple myeloma); experiment: Multiple myeloma cell growth inhibition, MTT, 72 h (Example 6); type: cell-based, human; details: Homo sapiens, RPMI-8226; 72 h, MTT, RPMI8226
Procedure, shortened: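 Viability was read by MTT after 72 h of compound exposure at 37 °C, 5% CO2. Each well held 6000 RPMI8226 cells in 1640 medium containing 10% fetal bovine serum, with derivatives added at various concentrations.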

[10] = tested on: Becap37 (human breast cancer cell); experiment: Solid tumor cell growth inhibition, MTT, 72 h (Example 7); type: cell-based; details: Homo sapiens; 72 h, MTT, Becap-37
Procedure, shortened: as §2

[11] = tested on: SK-OV-3 (ovarian cancer cell); experiment: as above; type: cell-based; details: Homo sapiens
Procedure, shortened: as §2

[12] = tested on: MGC 803 (human gastric cancer cell); experiment: as above; type: cell-based; details: Homo sapiens
Procedure, shortened: as §2

[13] = tested on: U87 MG (malignant glioma cell); experiment: as above; type: cell-based; details: Homo sapiens, U-87 MG
Procedure, shortened: as §2

[14] = tested on: RKO (human colon adenocarcinoma cell); experiment: as above; type: cell-based; details: Homo sapiens; 72 h, MTT, RKO
Procedure, shortened: as §2

[15] = tested on: CNE (nasopharyngeal carcinoma cell); experiment: as above; type: cell-based; details: Homo sapiens
Procedure, shortened: as §2

[16] = tested on: Huh7 (human liver cancer cell); experiment: as above; type: cell-based; details: Homo sapiens; 72 h, MTT, Huh-7
Procedure, shortened: as §2

A549 (human lung cancer) = experiment: as above; type: cell-based; details: Homo sapiens; 72 h, MTT, A549
Procedure, shortened: as §2

[17] = tested on: Hela (human cervical cancer cell); experiment: as above; type: cell-based; details: Homo sapiens; 72 h, MTT, Hela
Procedure, shortened: as §2

IC50 [1]: 0.9 µg/mL (≈ 1.17 µM) | IC90 [1]: 2.1 µg/mL (≈ 2.73 µM) | IC50 [2]: 0.36 µg/mL (≈ 0.468 µM) | IC90 [2]: 1.58 µg/mL (≈ 2.05 µM) | IC50 [3]: 0.7 µg/mL (≈ 0.909 µM) | IC90 [3]: 1.11 µg/mL (≈ 1.44 µM) | IC50 [4]: 1.13 µg/mL (≈ 1.47 µM) | IC90 [4]: 4.75 µg/mL (≈ 6.17 µM) | IC50 [5]: 0.88 µg/mL (≈ 1.14 µM) | IC90 [5]: 3.57 µg/mL (≈ 4.64 µM) | IC50 (MG63 (osteosarcoma)): 1.3 µg/mL (≈ 1.69 µM) | IC90 (MG63 (osteosarcoma)): 1.9 µg/mL (≈ 2.47 µM) | IC50 (PC-3 (prostate cancer)): 1.59 µg/mL (≈ 2.06 µM) | IC90 (PC-3 (prostate cancer)): 2.14 µg/mL (≈ 2.78 µM) | IC50 [6]: 1.4 µg/mL (≈ 1.82 µM) | IC90 [6]: 4.18 µg/mL (≈ 5.43 µM) | IC50 [7]: 1.96 µg/mL (≈ 2.55 µM) | IC90 [7]: 4.25 µg/mL (≈ 5.52 µM) | IC50 [8]: 1.61 µg/mL (≈ 2.09 µM) | IC90 [8]: 7.4 µg/mL (≈ 9.61 µM) | IC50 [9]: 0.06 µg/mL (≈ 0.0779 µM) | IC90 [9]: 1.49 µg/mL (≈ 1.94 µM) | IC50 [10]: 1.3 µg/mL (≈ 1.69 µM) | IC90 [10]: 3.2 µg/mL (≈ 4.16 µM) | IC50 [11]: 2 µg/mL (≈ 2.6 µM) | IC90 [11]: 8.1 µg/mL (≈ 10.5 µM) | IC50 [12]: 0.73 µg/mL (≈ 0.948 µM) | IC90 [12]: 1 µg/mL (≈ 1.3 µM) | IC50 [13]: 0.5 µg/mL (≈ 0.649 µM) | IC90 [13]: 1.81 µg/mL (≈ 2.35 µM) | IC50 [14]: 1.15 µg/mL (≈ 1.49 µM) | IC90 [14]: 2.49 µg/mL (≈ 3.23 µM) | IC50 [15]: 2.3 µg/mL (≈ 2.99 µM) | IC90 [15]: 3.5 µg/mL (≈ 4.55 µM) | IC50 [16]: 1.55 µg/mL (≈ 2.01 µM) | IC90 [16]: 3.72 µg/mL (≈ 4.83 µM) | IC50 (A549 (human lung cancer)): 2.2 µg/mL (≈ 2.86 µM) | IC90 (A549 (human lung cancer)): 5.8 µg/mL (≈ 7.53 µM) | IC50 [17]: 0.94 µg/mL (≈ 1.22 µM) | IC90 [17]: 2.02 µg/mL (≈ 2.62 µM)
SMILES: COc1ccc2cc1Oc1ccc(cc1)C[C@H]1c3cc(c(OC)cc3CCN1C)Oc1c(OC)c(OC)c(CN(C)[C@@H](C)c3ccccc3)c3c1[C@H](C2)N(C)CC3 [BS-TE-317]
anti-PC-3 activity increase over tetrandrine (PC-3 (prostate cancer); compared with tetrandrine): ~4 fold | anti-PANC-1 activity increase over tetrandrine ([6]; compared with tetrandrine): 2 fold

IC50 [1]: 0.8 µg/mL (≈ 1.09 µM) | IC90 [1]: 1.9 µg/mL (≈ 2.58 µM) | IC50 [2]: 0.49 µg/mL (≈ 0.666 µM) | IC90 [2]: 3.02 µg/mL (≈ 4.1 µM) | IC50 [3]: 0.91 µg/mL (≈ 1.24 µM) | IC90 [3]: 1.78 µg/mL (≈ 2.42 µM) | IC50 [4]: 0.94 µg/mL (≈ 1.28 µM) | IC90 [4]: 5.75 µg/mL (≈ 7.81 µM) | IC50 [5]: 0.48 µg/mL (≈ 0.652 µM) | IC90 [5]: 2.55 µg/mL (≈ 3.47 µM) | IC50 (MG63 (osteosarcoma)): 1.1 µg/mL (≈ 1.49 µM) | IC90 (MG63 (osteosarcoma)): 3.2 µg/mL (≈ 4.35 µM) | IC50 (PC-3 (prostate cancer)): 2.01 µg/mL (≈ 2.73 µM) | IC90 (PC-3 (prostate cancer)): 3.84 µg/mL (≈ 5.22 µM) | IC50 [6]: 2.6 µg/mL (≈ 3.53 µM) | IC90 [6]: 9.14 µg/mL (≈ 12.4 µM) | IC50 [7]: 3.51 µg/mL (≈ 4.77 µM) | IC90 [7]: 9.8 µg/mL (≈ 13.3 µM) | IC50 [8]: 2.25 µg/mL (≈ 3.06 µM) | IC90 [8]: 19.1 µg/mL (≈ 25.9 µM) | IC50 [9]: 0.08 µg/mL (≈ 0.109 µM) | IC90 [9]: 3.63 µg/mL (≈ 4.93 µM) | IC50 [10]: 1.4 µg/mL (≈ 1.9 µM) | IC90 [10]: 4.5 µg/mL (≈ 6.11 µM) | IC50 [11]: 3.5 µg/mL (≈ 4.76 µM) | IC90 [11]: > 16 µg/mL | IC50 [12]: 1.78 µg/mL (≈ 2.42 µM) | IC90 [12]: 6.73 µg/mL (≈ 9.14 µM) | IC50 [13]: 0.57 µg/mL (≈ 0.775 µM) | IC90 [13]: 2.51 µg/mL (≈ 3.41 µM) | IC50 [14]: 0.69 µg/mL (≈ 0.938 µM) | IC90 [14]: 1.71 µg/mL (≈ 2.32 µM) | IC50 [15]: 2.8 µg/mL (≈ 3.8 µM) | IC90 [15]: 6.6 µg/mL (≈ 8.97 µM) | IC50 [16]: 0.81 µg/mL (≈ 1.1 µM) | IC90 [16]: 1.24 µg/mL (≈ 1.68 µM) | IC50 (A549 (human lung cancer)): 4.4 µg/mL (≈ 5.98 µM) | IC90 (A549 (human lung cancer)): 16 µg/mL (≈ 21.7 µM) | IC50 [17]: 1.48 µg/mL (≈ 2.01 µM) | IC90 [17]: 4.31 µg/mL (≈ 5.86 µM)
SMILES: COc1ccc2cc1Oc1ccc(cc1)C[C@H]1c3cc(c(OC)cc3CCN1C)Oc1c(OC)c(OC)c(CN3CCCC(O)C3)c3c1[C@H](C2)N(C)CC3 (some centres unmarked) [BS-TE-321]

IC50 [1]: 0.63 µg/mL (≈ 0.841 µM) | IC90 [1]: 2.17 µg/mL (≈ 2.9 µM) | IC50 [2]: 0.79 µg/mL (≈ 1.05 µM) | IC90 [2]: 2.4 µg/mL (≈ 3.2 µM) | IC50 [3]: 1.54 µg/mL (≈ 2.06 µM) | IC90 [3]: 2.21 µg/mL (≈ 2.95 µM) | IC50 [4]: 1.41 µg/mL (≈ 1.88 µM) | IC90 [4]: 5.41 µg/mL (≈ 7.22 µM) | IC50 [5]: 1.24 µg/mL (≈ 1.66 µM) | IC90 [5]: 3.2 µg/mL (≈ 4.27 µM) | IC50 (MG63 (osteosarcoma)): 0.49 µg/mL (≈ 0.654 µM) | IC90 (MG63 (osteosarcoma)): 0.62 µg/mL (≈ 0.828 µM) | IC50 (PC-3 (prostate cancer)): 3.4 µg/mL (≈ 4.54 µM) | IC90 (PC-3 (prostate cancer)): 5 µg/mL (≈ 6.68 µM) | IC50 [6]: 1.62 µg/mL (≈ 2.16 µM) | IC90 [6]: 4.58 µg/mL (≈ 6.12 µM) | IC50 [7]: 3.37 µg/mL (≈ 4.5 µM) | IC90 [7]: 7.54 µg/mL (≈ 10.1 µM) | IC50 [8]: 1 µg/mL (≈ 1.34 µM) | IC90 [8]: 9.26 µg/mL (≈ 12.4 µM) | IC50 [9]: 0.11 µg/mL (≈ 0.147 µM) | IC90 [9]: 2.43 µg/mL (≈ 3.24 µM) | IC50 [10]: 1.63 µg/mL (≈ 2.18 µM) | IC90 [10]: 3 µg/mL (≈ 4.01 µM) | IC50 [11]: 2.19 µg/mL (≈ 2.92 µM) | IC90 [11]: 4 µg/mL (≈ 5.34 µM) | IC50 [12]: 1.26 µg/mL (≈ 1.68 µM) | IC90 [12]: 1.88 µg/mL (≈ 2.51 µM) | IC50 [13]: 1.11 µg/mL (≈ 1.48 µM) | IC90 [13]: 2.02 µg/mL (≈ 2.7 µM) | IC50 [14]: 0.51 µg/mL (≈ 0.681 µM) | IC90 [14]: 0.91 µg/mL (≈ 1.22 µM) | IC50 [15]: 0.94 µg/mL (≈ 1.26 µM) | IC90 [15]: 2.59 µg/mL (≈ 3.46 µM) | IC50 [16]: 1.3 µg/mL (≈ 1.74 µM) | IC90 [16]: 1.67 µg/mL (≈ 2.23 µM) | IC50 (A549 (human lung cancer)): 3.5 µg/mL (≈ 4.67 µM) | IC90 (A549 (human lung cancer)): 10.5 µg/mL (≈ 14 µM) | IC50 [17]: 1.55 µg/mL (≈ 2.07 µM) | IC90 [17]: 5 µg/mL (≈ 6.68 µM)
SMILES: COc1ccc2cc1Oc1ccc(cc1)C[C@H]1c3cc(c(OC)cc3CCN1C)Oc1c(OC)c(OC)c(CN3CCCN(C)CC3)c3c1[C@H](C2)N(C)CC3 [BS-TE-356]
